In patent US20230027985A1, “SUBSTITUTED HYDANTOINAMIDES AS ADAMTS7 ANTAGONISTS” (Bayer Aktiengesellschaft, priority 2019, published 2023):

Tests used:
ADAMTS4 = molecular target: T1, ADAMTS4 (Homo sapiens, UniProt O75173); assay: Selectivity assay for ADAMTS-7 modulators (FRET), ADAMTS4; assay type: biochemical; conditions: 50 nM enzyme (R&D 4307-AD), 1 μM Dabcyl/Edans FRET substrate, 120 min at 32° C.
T1 construct: purchased R&D 4307-AD
T1 sequence (O75173 213-685 limits assumed): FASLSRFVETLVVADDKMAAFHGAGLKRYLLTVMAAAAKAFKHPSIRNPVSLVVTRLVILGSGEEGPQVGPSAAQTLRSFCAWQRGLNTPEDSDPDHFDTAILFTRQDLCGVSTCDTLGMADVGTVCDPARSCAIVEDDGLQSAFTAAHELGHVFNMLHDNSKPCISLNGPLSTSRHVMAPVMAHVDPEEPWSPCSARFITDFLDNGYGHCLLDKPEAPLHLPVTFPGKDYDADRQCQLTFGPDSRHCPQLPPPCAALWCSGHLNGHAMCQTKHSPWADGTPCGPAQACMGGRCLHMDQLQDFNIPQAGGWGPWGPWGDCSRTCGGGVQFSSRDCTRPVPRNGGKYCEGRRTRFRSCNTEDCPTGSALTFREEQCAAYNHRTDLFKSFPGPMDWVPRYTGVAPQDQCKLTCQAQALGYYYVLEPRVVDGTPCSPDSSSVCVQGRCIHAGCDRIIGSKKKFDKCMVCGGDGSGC
Procedure, shortened: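 Enzyme in 50 mM Tris pH 7.5, 150 mM NaCl, 10 mM CaCl2, 0.05% Brij, preincubated with compound in DMSO; reaction started with FRET substrate. Fluorescence increase read after 120 min at 32° C; IC50 from percent inhibition versus compound concentration.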

[1] = molecular target: T2, Purified recombinant ADAMTS-7 (rat prodomain/human catalytic domain, SEQ ID No. 01 or 02) (Homo sapiens, UniProt Q9UKP4); assay: Assay for ADAMTS-7 enzymatic activity (FRET substrate cleavage); assay type: biochemical; conditions: FRET substrate SEQ ID No. 11, 120 min at 32° C.; read-out: ADAMTS7-IC50
T2 construct: rat ADAMTS-7 signal peptide + prodomain (rat 1-217, Q1EHB3) (N); 2xStrep tag (C); 6xHis tag (C); made in house; host or cells: Expi293 cells
T2 sequence (Q9UKP4 237-537): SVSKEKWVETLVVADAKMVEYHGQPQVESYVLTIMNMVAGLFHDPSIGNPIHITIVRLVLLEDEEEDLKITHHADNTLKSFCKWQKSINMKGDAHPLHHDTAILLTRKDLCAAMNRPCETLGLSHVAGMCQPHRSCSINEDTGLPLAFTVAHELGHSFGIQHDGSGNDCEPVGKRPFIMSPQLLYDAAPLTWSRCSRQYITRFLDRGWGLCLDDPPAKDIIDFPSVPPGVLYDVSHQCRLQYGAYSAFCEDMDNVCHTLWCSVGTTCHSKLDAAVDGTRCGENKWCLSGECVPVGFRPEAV
Procedure, shortened: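 About 20 nM enzyme in 20 mM HEPES pH 8.0, 150 mM NaCl, 5 mM CaCl2, 0.004% Brij and 10 μM ZnCl2 was mixed with compound in DMSO and a QXL520-quenched FRET peptide from thrombospondin-1 (275-289). After 120 min at 32 °C, fluorescence was read at 485/520 nm. IC50 came from percent inhibition versus concentration.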

Question: What does the source list for `O=C1NC(=O)C(CNC(=O)c2cnn(-c3ccc(F)cc3F)n2)(c2nccs2)N1` (single isomer, unassigned; ent-2) [Example 116, ent-2-(2,4-difluorophenyl)-N-{[2,5-dioxo-4-(1,3-thiazol-2-yl)imidazolidin-4-yl]methyl}-2H-1,2,3-triazole-4-carboxamide]?
Answer: IC50 (ADAMTS4): 5500 nM; IC50 [1]: 78 nM

Question: For `CC(C)C1(CNC(=O)c2cnn(-c3cccc(F)c3)n2)NC(=O)NC1=O` (single isomer, unassigned; ent-2) [Example 119, ent-2-(3-fluorophenyl)-N-[(4-isopropyl-2,5-dioxoimidazolidin-4-yl)methyl]-2H-1,2,3-triazole-4-carboxamide], which IC50 (ADAMTS4) is on record?
Answer: 2300 nM

Question: And the IC50 [1]?
Answer: 13 nM

Question: Which IC50 (ADAMTS4) does the source give for `CC(C)C1(CNC(=O)c2cnn(-c3cccc(C#N)c3)n2)NC(=O)NC1=O` (single isomer, unassigned; ent-2) [Example 121, ent-2-(3-cyanophenyl)-N-[(4-isopropyl-2,5-dioxoimidazolidin-4-yl)methyl]-2H-1,2,3-triazole-4-carboxamide] here?
Answer: 2600 nM

Question: What about the IC50 [1] of the same compound?
Answer: 78 nM

Question: Which results are given for `CC(C)C1(CNC(=O)c2cnn(-c3ccc(F)c(F)c3)n2)NC(=O)NC1=O` (single isomer, unassigned; ent-2) [Example 123, ent-2-(3,4-difluorophenyl)-N-[(4-isopropyl-2,5-dioxoimidazolidin-4-yl)methyl]-2H-1,2,3-triazole-4-carboxamide]?
Answer: IC50 (ADAMTS4): 910 nM; IC50 [1]: 7 nM

Question: Which results are given for `CC(C)C1(CNC(=O)c2cnn(-c3ccc(Cl)c(F)c3)n2)NC(=O)NC1=O` (single isomer, unassigned; ent-2) [Example 125, ent-2-(4-chloro-3-fluorophenyl)-N-[(4-isopropyl-2,5-dioxoimidazolidin-4-yl)methyl]-2H-1,2,3-triazole-4-carboxamide]?
Answer: IC50 (ADAMTS4): 1000 nM; IC50 [1]: 7 nM

Question: What does the source list for `CC(C)C1(CNC(=O)c2cnn(-c3ccc(F)c(Cl)c3)n2)NC(=O)NC1=O` (single isomer, unassigned; ent-2) [Example 126, ent-2-(3-chloro-4-fluorophenyl)-N-[(4-isopropyl-2,5-dioxoimidazolidin-4-yl)methyl]-2H-1,2,3-triazole-4-carboxamide]?
Answer: IC50 (ADAMTS4): 12000 nM; IC50 [1]: 190 nM

Question: With `Cn1ccnc1C1(CNC(=O)c2cnn(-c3ccc(F)cc3)n2)NC(=O)NC1=O` (single isomer, unassigned; ent-2) [Example 144, ent-2-(4-fluorophenyl)-N-{[4-(1-methyl-1H-imidazol-2-yl)-2,5-dioxoimidazolidin-4-yl]methyl}-2H-1,2,3-triazole-4-carboxamide] as the compound, how does the IC50 (ADAMTS4) read?
Answer: 130 nM

Question: What about the IC50 [1] of the same compound?
Answer: 2 nM

Question: For `Cn1ccnc1C1(CNC(=O)c2cnn(-c3ccc(Cl)c(F)c3)n2)NC(=O)NC1=O` (single isomer, unassigned; ent-2) [Example 145, ent-2-(4-chloro-3-fluorophenyl)-N-{[4-(1-methyl-1H-imidazol-2-yl)-2,5-dioxoimidazolidin-4-yl]methyl}-2H-1,2,3-triazole-4-carboxamide], which IC50 (ADAMTS4) is on record?
Answer: 41 nM

Question: And the IC50 [1]?
Answer: 2 nM

Question: Which results are given for `Cn1ccnc1C1(CNC(=O)c2cnn(-c3ccc(F)c(F)c3)n2)NC(=O)NC1=O` (single isomer, unassigned; ent-2) [Example 147, ent-2-(3,4-difluorophenyl)-N-{[4-(1-methyl-1H-imidazol-2-yl)-2,5-dioxoimidazolidin-4-yl]methyl}2H-1,2,3-triazole-4-carboxamide]?
Answer: IC50 (ADAMTS4): 46 nM; IC50 [1]: 3 nM

Question: What does the source list for `CC1(CNC(=O)c2cnn(-c3ccc(F)cc3)n2)NC(=O)NC1=O` (single isomer, unassigned; ent-2) [Example 153, ent-2-(4-fluorophenyl)-N-[(4-methyl-2,5-dioxoimidazolidin-4-yl)methyl]-2H-1,2,3-triazole-4-carboxamide]?
Answer: IC50 (ADAMTS4): 8900 nM; IC50 [1]: 83 nM

Question: With `O=C1NC(=O)[C@](CNC(=O)c2cnn(-c3cccc(F)c3)n2)(C2CC2)N1` [Example 1, N-{[(4R)-4-cyclopropyl-2,5-dioxoimidazolidin-4-yl]methyl}-2-(3-fluorophenyl)-2H-1,2,3-triazole-4-carboxamide] as the compound, how does the IC50 (ADAMTS4) read?
Answer: 580 nM

Question: What about the IC50 [1] of the same compound?
Answer: 13 nM
